Measured values reported in article PMC10083437, “Small molecules targeting Pin1 as potent anticancer drugs” (Frontiers in Pharmacology, 2023).
pKd: −log10 of the molar value. Read-outs that look alike come from different tables or passages of the source.

Columns and labels:
Pin1 [1] = molecular target: T1, Pin1 (Homo sapiens, UniProt Q13526); experiment: SPR (Biacore S200, Pin1 immobilized on CM5); also PPIase assay IC50 […]; assay type: binding
T1 construct: human Pin1 with C-terminal His tag (pET-30a-pin1, E. coli BL21)
T1 sequence (Q13526 whole entry): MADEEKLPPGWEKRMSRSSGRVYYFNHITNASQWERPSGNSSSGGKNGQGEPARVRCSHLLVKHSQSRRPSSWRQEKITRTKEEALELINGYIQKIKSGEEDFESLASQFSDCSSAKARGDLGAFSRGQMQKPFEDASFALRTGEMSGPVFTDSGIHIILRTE

Pin1 [2] = molecular target: T1, Pin1; experiment: as above; assay type: binding; remark: listed apart in the source

| pKd (Pin1 [1]) | pKd (Pin1 [2]) | Compound |
| --- | --- | --- |
| 5.01 |  | NS(=O)(=O)c1ccc(-c2[nH]c3ccc(Cl)cc3c2-c2ccc(Cl)cc2)cc1 [HWH8-33, 2-(4-aminosulfonylphenyl)-3-(4-chlorophenyl)-5-chloro-indole] |
|  | 5.31 | NS(=O)(=O)c1ccc(-c2[nH]c3ccc(Cl)cc3c2-c2cccc(Cl)c2)cc1 [HWH8-36, 2-(4-aminosulfonylphenyl)-3-(3-chlorophenyl)-5-chloro-indole] |
